# Experimental data published in publication PMC7024211, “Antifouling Napyradiomycins from Marine-Derived Actinomycetes Streptomyces aculeolatus” (Marine Drugs, 2020).
# Legend:
# M. edulis = test system: M. edulis; design: method as in doi:10.1016/S0044-8486(97)00209-3; conditions: against M. edulis ref 62; cited from earlier work
# C. marina [1] = experiment: Bacterial growth inhibition assay (OD600nm); assay type: cell-based, Cobetia marina; conditions: 31.25 µg/mL
# Excerpt: (§1) Five marine bacterial species were used as models to assess antimicrofouling activity. The biofilm-forming marine bacteria Marinobacter hydrocarbonoclasticus DSM 8798 (ATCC 49840), Cobetia marina DSM 4741, Phaeobacter inhibens DSM 17,395, and Pseusooceanicola batsensis DSM 15,984 were obtained from DSMZ (Leibniz Institute DSMZ—German collection of Microorganisms and Cell Cultures) and Micrococcus luteus. Cultures were routinely grown in liquid marine broth (Carl Roth GmbH, Karlsruhe, Germany) with agitation (180 rpm) or on agar-supplemented marine broth, at 28 °C (M. hydrocarbonoclasticus and C. marina) or 30 °C (P. inhibens and P. batsensis). M. luteus was maintained in Brain Heart Infusion broth (BHI, Becton Dickinson, GmbH, Heidelberg, Germany) with agitation (180 rpm) or on agar-supplemented BHI, at 37 °C.
# (§2) The antibacterial activity of the napyradiomycins (1–12) was assessed in 96-well polystyrene flat bottom microplates (Nunclon Delta Surface, Thermo Scientific, Roskilde, Denmark) following previously reported procedures. […] After 24 h (M. hydrocarbonoclasticus, C. marina) or 48 h (P. batsensis, P. inhibens, M. luteus) incubation, the OD600nm was determined (Molecular Devices, Spectra Max 190). […] The percentage of growth inhibition was calculated as the amount of growth relative to that of the bacterial species without added compounds (with the same amount of DMSO added). CuSO4 (5 μM), a potent antifouling agent used in antifouling paints, was used as reference.
# (§3) All assays were performed in triplicate, and results are representative of the average and standard error of the mean (SEM). Statistical analysis was performed in GraphPad Prism 8.0.2 (San Diego, CA, USA), using one-way ANOVA followed by a Dunnett’s multiple comparisons test against the control (species grown with the same amount of DMSO added).
# P. inhibens [2] = experiment: Bacterial growth inhibition assay (OD600nm); assay type: cell-based, Phaeobacter inhibens; conditions: 31.25 µg/mL
# Description: (§4) As a first screening approach, liquid cultures of M. hydrocarbonoclasticus, and C. marina in a 96-well format were analyzed for bacterial growth inhibition by percent decrease in OD600 after incubation with napyradiomycins (1–12) at 31.25 µg/mL.
# Five marine bacterial species were used as models to assess antimicrofouling activity. The biofilm-forming marine bacteria Marinobacter hydrocarbonoclasticus DSM 8798 (ATCC 49840), Cobetia marina DSM 4741, Phaeobacter inhibens DSM 17,395, and Pseusooceanicola batsensis DSM 15,984 were obtained from DSMZ (Leibniz Institute DSMZ—German collection of Microorganisms and Cell Cultures) and Micrococcus luteus. […]
# as §2, with “CuSO4 (5 μM), a potent antifouling agent used in antifouling paints, was used as reference.” left out
# M. hydrocarbonoclasticus [3] = experiment: Bacterial growth inhibition assay (OD600nm); assay type: cell-based, Marinobacter hydrocarbonoclasticus; conditions: 31.25 µg/mL
# Description: as §4, §1
# (§5) The antibacterial activity of the napyradiomycins (1–12) was assessed in 96-well polystyrene flat bottom microplates (Nunclon Delta Surface, Thermo Scientific, Roskilde, Denmark) following previously reported procedures. For initial screening, bacterial overnight cultures were diluted to an optical density (OD600nm) of 0.2 and incubated statically at 28 °C (M. hydrocarbonoclasticus, C. marina), 30 °C (P. inhibens, P. batsensis) or 37 °C (M. luteus) in a 96-well microplate in the presence or absence of 31.25 µg/mL of the napyradiomycins, solubilized in DMSO. After 24 h (M. hydrocarbonoclasticus, C. marina) or 48 h (P. batsensis, P. inhibens, M. luteus) incubation, the OD600nm was determined (Molecular Devices, Spectra Max 190). […] The percentage of growth inhibition was calculated as the amount of growth relative to that of the bacterial species without added compounds (with the same amount of DMSO added). CuSO4 (5 μM), a potent antifouling agent used in antifouling paints, was used as reference.
# as §3
# C. marina [4] = experiment: Biofilm inhibition assay (crystal violet); assay type: cell-based, Cobetia marina; conditions: 31.25 µg/mL
# Description: (§6) In a 96-well plate, biofilm grown cultures of M. hydrocarbonoclasticus and C. marina were incubated with napyradiomycins (1–12) at a concentration of 31.25 µg/mL. After discarding the media, biofilm inhibition was determined from OD600 measurements of crystal violet stained cells resuspended from the plate bottom with acetic acid.
# as §1
# (§7) The antibiofilm activity of napyradiomycins (1–12) against the five marine bacterial species was assessed in 96-well polystyrene flat bottom microplates (Nunclon Delta Surface, Thermo Scientific, Roskilde, Denmark) as previously reported. For initial screening, bacterial overnight cultures were diluted to an optical density (OD600nm) value of 0.2 and incubated statically at 28 °C (M. hydrocarbonoclasticus, C. marina), 30 °C (P. inhibens, P. batsensis) or 37 °C (M. luteus) in the 96-well microplate in the presence or absence of 31.25 µg/mL of napyradiomycins, solubilized in DMSO. After 24 h (M. hydrocarbonoclasticus, C. marina) or 48 h (P. batsensis, P. inhibens, M. luteus) incubation, the OD600nm was determined. The planktonic cells and media were discarded, and the wells were washed twice with deionized water. The biofilm was fixed for 1 h at 60 °C and stained with crystal violet 0.06% for 10 min. The dye was discarded, and the wells were again washed twice with deionized water. The stained biofilm was solubilized with 30% acetic acid and the OD600nm was determined. […] The percentage of biofilm inhibition was calculated as the amount of biofilm relative to that of the bacterial species without added compounds (with the same amount of DMSO added). CuSO4 (5 μM), a potent antifouling agent used in antifouling paints, was used as reference.
# as §3, with “8.0.2,” for “8.0.2 (San Diego, CA, USA),”
# P. batsensis [5] = experiment: Biofilm inhibition assay (crystal violet); assay type: cell-based, Pseudooceanicola batsensis; conditions: 31.25 µg/mL
# Description: as §6, §1, §7
# as §3, with “8.0.2,” for “8.0.2 (San Diego, CA, USA),”
# [6] = Mussel plantigrade larvae settlement, 15 h acute exposure assay; assay type: in vivo; conditions: Mytilus galloprovincialis (mussel, plantigrade larvae), in vivo, no mortality at highest tested concentration 12 µg/mL
# Description: (§8) Mussel (M. galloprovincialis) adhesive larvae (plantigrades) were used to assess in vivo the antifouling activity of napyradiomycins (1–12) towards macrofouling. Juvenile mussel aggregates were collected at the intertidal rocky shore during low spring tides, at Memória beach, Matosinhos, Portugal (41°13′59″ N; 8°43′28″ W). At the laboratory, immediately before the bioassays, mussel plantigrade larvae were screened and isolated from the juvenile aggregates using a binocular microscope (Olympus SZX2-ILLT, Hamburg, Germany) and washed with filtered seawater to remove organic debris. Only competent plantigrade larvae (those showing foot exploratory behavior) were selected and used in the exposure bioassays following previously validated procedures. Plantigrades were exposed in 24-well polystyrene plates for 15 h in the darkness at 18 °C. DMSO was used as solvent for crude extracts, fractions and pure compounds stock and working solutions. Working solutions were prepared by successive dilutions of stock solutions in DMSO and then diluted in filtered seawater to obtain the test solutions. DMSO concentration in test solutions was always 0.1%. Four well replicates were used per condition with five larvae per well. Two negative controls, one with ultra-pure water and the other with DMSO 0.1% were included in all bioassays, as well as a positive control with 5 μM CuSO4 (a potent antifouling agent). Anti-settlement bioactivity was determined by the presence/absence of fixed byssal threads produced by each individual larvae for all the conditions tested. […] Chi-square Pearsons goodness-of-fit test was applied to data in order to determine EC50. Significance was considered at p < 0.01 for all analyses, and 95% lower and upper confidence limits [95% LCL; UCL] were presented. Therapeutic ratio (LC50/EC50) was used to evaluate the effectiveness vs. toxicity of compounds [19, 21].
# [7] = test system: M. galloprovincialis plantigrade larvae; experiment: as above; assay type: in vivo; conditions: Mytilus galloprovincialis, 15 h, 95% LCL, UCL in brackets, read-out: EC50 [Conf. limits] larval settlement
# Description: as §8
# M. hydrocarbonoclasticus [8] = experiment: Biofilm inhibition assay (crystal violet); assay type: cell-based, Marinobacter hydrocarbonoclasticus; conditions: Marinobacter nauticus
# Description: as §6, §1, §7
# as §3, with “8.0.2,” for “8.0.2 (San Diego, CA, USA),”
# M. luteus [9] = experiment: Bacterial growth inhibition assay (OD600nm); assay type: cell-based, Micrococcus luteus; conditions: 31.25 µg/mL
# Excerpt: as §1, §2, §3
# P. batsensis [10] = experiment: Bacterial growth inhibition assay (OD600nm); assay type: cell-based, Pseudooceanicola batsensis; conditions: 31.25 µg/mL
# Description: as §4, §1, §5, §3
# P. inhibens [11] = experiment: Biofilm inhibition assay (crystal violet); assay type: cell-based, Phaeobacter inhibens; conditions: 31.25 µg/mL
# Description: as §6, §1, §7
# All assays were performed in triplicate, and results are representative of the average and standard error of the mean (SEM). […]
# M. luteus [12] = experiment: Biofilm inhibition assay (crystal violet); assay type: cell-based, Micrococcus luteus; conditions: 31.25 µg/mL
# Description: as §6, §1, §7
# as §3, with “8.0.2,” for “8.0.2 (San Diego, CA, USA),”
Compound,EC50 (M. edulis) [µg/mL],% growth inhibition C. marina (C. marina [1]),% growth inhibition P. inhibens (P. inhibens [2]),% growth inhibition M. hydrocarbonoclasticus (M. hydrocarbonoclasticus [3]),% Biofilm Inhibition ± SEM C. marina (C. marina [4]),% Biofilm Inhibition ± SEM P. batsensis (P. batsensis [5]),LC50 at 15 h [6] [µg/mL],EC50 [7] [µg/mL],"inhibition at 0.98 µg/mL (M. hydrocarbonoclasticus [8]; 0.98 µg/mL, read-out: % inhibition of biofilm formation M. hydro.) [%]","inhibition at 1.95 µg/mL (M. hydrocarbonoclasticus [8]; 1.95 µg/mL, read-out: % inhibition of biofilm formation M. hydro.) [%]","inhibition at 15.6 µg/mL (M. hydrocarbonoclasticus [8]; 15.6 µg/mL, read-out: % inhibition of biofilm formation M. hydro.) [%]","inhibition at 31.25 µg/mL (M. hydrocarbonoclasticus [8]; 31.25 µg/mL, read-out: % Biofilm Inhibition ± SEM M. hydrocarbonoclasticus) [%]",% growth inhibition M. luteus (M. luteus [9]),% growth inhibition P. batsensis (P. batsensis [10]),% Biofilm Inhibition ± SEM P. inhibens (P. inhibens [11]),% Biofilm Inhibition ± SEM M. luteus (M. luteus [12])
ivermectin,0.4,,,,,,,,,,,,,,,
"CC(=CCCC(C)=CCC12OC(C)(C)C(Cl)CC1(Cl)C(=O)c1c(O)cc(O)cc1C2=O)CO (stereo not shown) [Napyradiomycin 2, 18-hydroxynapyradiomycin A1]",,did not inhibit growth,did not inhibit growth,did not inhibit growth,N.I.,N.I.,> 12,2,24.6 ± 9.8,56.5 ± 5.7,56.6 ± 0.9,60.2 ± 5.7,did not inhibit growth,did not inhibit growth,N.I.,N.I.
